Experimental data reported in the supplement of paper PMC8671470.
Structures can show the parent of a compound that is named as a salt.

Key:
Conditions in all cases: 72 h
[1] = tested on: BV-173
Summary of the method: (§1)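 For the IC50, dose–response curves were fitted with a log-logistic model. The data came from fifteen myeloid leukaemia cell lines grown in RPMI 1640 at densities in the linear growth range and incubated in 384-well plates for 72 h at 37 °C under 5% CO2. Doses were five tenfold steps from 1 to 10,000 nM in duplicate, and luminescent ATP viability was normalised to vehicle and to a positive control at 10 µM before four-parameter fitting.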

[2] = tested on: HEL
Summary of the method: as §1

[3] = tested on: HL-60
Summary of the method: as §1

[4] = tested on: K-562
Summary of the method: as §1

[5] = tested on: KCL-22
Summary of the method: as §1

[6] = tested on: KG-1
Summary of the method: as §1

[7] = tested on: KU-812
Summary of the method: as §1

[8] = tested on: LAMA-84
Summary of the method: as §1

[9] = tested on: ML-2
Summary of the method: as §1

[10] = tested on: MOLM-13
Summary of the method: as §1

[11] = tested on: MV4-11
Summary of the method: as §1

[12] = tested on: Mono-Mac-6
Summary of the method: as §1

[13] = tested on: NOMO-1
Summary of the method: as §1

[14] = tested on: SHI-1
Summary of the method: as §1

[15] = tested on: THP-1
Summary of the method: as §1

[16] = tested on: BV-173; assay: cell viability (% survival relative to DMSO control, bortezomib = 0%); higher = less cytotoxic
Summary of the method: (§2)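 In 384-well plates pre-printed with compounds at 1, 10, 100, 1000 or 10000 nM, duplicate wells received cells from 10 AML and 5 CML lines at densities within the linear growth range. The plates stayed at 37 °C with 5% CO2 for 72 h before CellTiter-Glo luminescence was recorded. Each entry is averaged percent survival. Scaling placed vehicle at 100% and a 10 µM positive control at 0%.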

[17] = tested on: HEL; assay: as above
Summary of the method: as §2

[18] = tested on: HL-60; assay: as above
Summary of the method: as §2

[19] = tested on: K-562; assay: as above
Summary of the method: as §2

[20] = tested on: KCL-22; assay: as above
Summary of the method: as §2

[21] = tested on: KG-1; assay: as above
Summary of the method: as §2

[22] = tested on: KU-812; assay: as above
Summary of the method: as §2

[23] = tested on: LAMA-84; assay: as above
Summary of the method: as §2

[24] = tested on: ML-2; assay: as above
Summary of the method: as §2

[25] = tested on: MOLM-13; assay: as above
Summary of the method: as §2

[26] = tested on: MV4-11; assay: as above
Summary of the method: as §2

[27] = tested on: Mono-Mac-6; assay: as above
Summary of the method: as §2

[28] = tested on: NOMO-1; assay: as above
Summary of the method: as §2

[29] = tested on: SHI-1; assay: as above
Summary of the method: as §2

[30] = tested on: THP-1; assay: as above
Summary of the method: as §2

Cc1cc(CS(=O)(=O)c2ccccc2)cc(OCc2ccc(CN3CCC[C@@H]3CO)cc2)c1 [PF-543 hydrochloride]
Conditions	IC50 (cell viability) [µM]
[1]	8.45
[2]	> 10
[3]	> 10
[4]	4.85
[5]	> 10
[6]	> 10
[7]	> 10
[8]	> 10
[9]	> 10
[10]	> 10
[11]	> 10
[12]	> 10
[13]	> 10
[14]	> 10
[15]	> 10

cell viability [%]
Conditions	1 nM	10 nM	100 nM	1000 nM	10000 nM
[16]	83.7	103	152	87.8	56.7
[17]	92	88.6	105	88.1	94
[18]	118	92.2	119	83.7	79.8
[19]	90.4	113	131	91.1	40.4
[20]	91.5	94.5	122	82.5	84.9
[21]	92.1	102	114	111	84.3
[22]	97.5	91.6	97.7	101	61
[23]	108	91.9	103	93.9	71.5
[24]	89.8	97.3	130	91	88.5
[25]	72.9	110	88.8	117	79.6
[26]	83.5	104	119	103	65.5
[27]	89.6	84.7	101	89.8	82.9
[28]	89.2	94.9	103	101	93
[29]	82.3	109	100	84.8	87.9
[30]	89.7	95.5	111	94.8	96.5

CCOC(=O)c1ccc(-c2ccc(OC(=O)N(C)Cc3cccc(-c4ccncc4)c3)cc2)cc1 [WWL113]
Conditions	IC50 (cell viability) [µM]
[1]	> 10
[2]	> 10
[3]	> 10
[4]	> 10
[5]	> 10
[6]	> 10
[7]	> 10
[8]	> 10
[9]	> 10
[10]	> 10
[11]	> 10
[12]	> 10
[13]	> 10
[14]	> 10
[15]	> 10

cell viability [%]
Conditions	1 nM	10 nM	100 nM	1000 nM	10000 nM
[16]	123	114	102	105	94.9
[17]	134	99.2	91.9	104	99.6
[18]	103	91.3	89.1	114	125
[19]	121	105	94	92.1	87.5
[20]	132	95.4	98.7	92.9	110
[21]	99.2	93.4	92.7	94.3	107
[22]	112	100	105	91.6	92
[23]	113	104	94.8	114	101
[24]	104	101	94.7	106	106
[25]	120	122	97.3	85.8	105
[26]	129	101	105	103	93.3
[27]	108	112	102	94.2	109
[28]	104	106	88.1	104	105
[29]	114	100	92	95.2	108
[30]	114	101	95.2	101	102
